Experimental data taken from patent US20230190760A1, “ADVANTAGEOUS THERAPIES FOR DISORDERS MEDIATED BY IKAROS OR AIOLOS” (C4 Therapeutics, Inc., priority 2020, published 2023).

Assays:
[1] = test system: Interferon-response proteins in DL-40 ALCL xenograft tumors; assay: Global proteomics and gene ontology of DL-40 ALCL xenograft tumors, 48 hours after dose; type: in vivo, mice; design: Log2 vs Vehicle, 0AS1: dose or concentration left out as unconfirmed
Procedure: […] Gene ontology analysis was done by using BINGO, a Java-based tool that is implemented as a plugin for Cytoscape. Default settings were used to assess the overexpression of GO categories and the interactions among altered proteins were determined using the STRING database, with a cutoff score of 700.

[2] = test system: MM.1S; assay: Anti-proliferative activity, 96 hours; conditions: Homo sapiens, MM1.S
[3] = test system: IMiD-resistant NCIH929 cells; assay: Growth of IMiD-resistant NCIH929 cells (CellTiter-Glo)
Procedure: Briefly, test compound was added to 384-well plates at a top concentration of 10 μM with 14 points, half log titration in duplicates. NCIH929 cells were seeded into the 384-well plates in RPMI medium containing 10% FBS and 0.05 mM 2-mercaptoethanol at a cell density of 750 cells per well. Cells treated in the absence of the test compound were the negative control and cells treated in the absence of CellTiter-Glo® 2.0 were the positive control. Cells treated with the test compounds were incubated at 37° C. with 5% CO2 for 96 hr. CellTiter-Glo reagent was then added to the cells and luminescence was acquired on EnVision™ Multilabel Reader (PerkinElmer, Santa Clara, Calif., USA). % Viability was determined by normalizing the signal with positive and DMSO treated negative controls on the same microtiter plate.

O=C1CC[C@H](N2C(=O)c3cccc4c(Cc5ccc(CN6CCOCC6)cc5)ccc2c34)C(=O)N1 (single isomer, unassigned) [Compound 1]
Log2 vs Vehicle, MX2 ([1]; 0.1 nM for 48 hr): 0.83 | Log2 vs Vehicle, NCAM1 ([1]; 0.1 nM for 48 hr): −0.127 | Log2 vs Vehicle, NDC1 ([1]; 0.1 nM for 48 hr): −0.063 | Log2 vs Vehicle, NEDD4 ([1]; 0.1 nM for 48 hr): 0.375 | Log2 vs Vehicle, NUP35 ([1]; 0.1 nM for 48 hr): −0.023 | Log2 vs Vehicle, NUP37 ([1]; 0.1 nM for 48 hr): −0.009 | Log2 vs Vehicle, NUP43 ([1]; 0.1 nM for 48 hr): −0.042 | Log2 vs Vehicle, NUP50 ([1]; 0.1 nM for 48 hr): −0.009 | Log2 vs Vehicle, NUP54 ([1]; 0.1 nM for 48 hr): 0.014 | Log2 vs Vehicle, NUP62 ([1]; 0.1 nM for 48 hr): −0.019 | Log2 vs Vehicle, NUP85 ([1]; 0.1 nM for 48 hr): −0.05 | Log2 vs Vehicle, NUP88 ([1]; 0.1 nM for 48 hr): 0.031 | Log2 vs Vehicle, NUP93 ([1]; 0.1 nM for 48 hr): 0.029 | Log2 vs Vehicle, NUP107 ([1]; 0.1 nM for 48 hr): 0.033 | Log2 vs Vehicle, NUP133 ([1]; 0.1 nM for 48 hr): −0.019 | Log2 vs Vehicle, NUP153 ([1]; 0.1 nM for 48 hr): −0.013 | Log2 vs Vehicle, NUP155 ([1]; 0.1 nM for 48 hr): 0.001 | Log2 vs Vehicle, NUP160 ([1]; 0.1 nM for 48 hr): 0.026 | Log2 vs Vehicle, NUP188 ([1]; 0.1 nM for 48 hr): 0.029 | Log2 vs Vehicle, NUP205 ([1]; 0.1 nM for 48 hr): −0.001 | Log2 vs Vehicle, NUP210 ([1]; 0.1 nM for 48 hr): 0.045 | Log2 vs Vehicle, NUP214 ([1]; 0.1 nM for 48 hr): −0.08 | Log2 vs Vehicle, NUPL2 ([1]; 0.1 nM for 48 hr): 0.073 | Log2 vs Vehicle, OAS2 ([1]; 0.1 nM for 48 hr): 0.478 | Log2 vs Vehicle, OAS3 ([1]; 0.1 nM for 48 hr): 0.884 | Log2 vs Vehicle, OASL ([1]; 0.1 nM for 48 hr): 0.111 | Log2 vs Vehicle, P0M121 ([1]; 0.1 nM for 48 hr): −0.05 | Log2 vs Vehicle, P0M121C ([1]; 0.1 nM for 48 hr): −0.039 | Log2 vs Vehicle, PDE12 ([1]; 0.1 nM for 48 hr): 0.013 | Log2 vs Vehicle, PIAS1 ([1]; 0.1 nM for 48 hr): −0.114 | Log2 vs Vehicle, PINI ([1]; 0.1 nM for 48 hr): 0.05 | Log2 vs Vehicle, PLCG1 ([1]; 0.1 nM for 48 hr): 0.052 | Log2 vs Vehicle, PML ([1]; 0.1 nM for 48 hr): 0.176 | Log2 vs Vehicle, PPM1B ([1]; 0.1 nM for 48 hr): −0.001 | Log2 vs Vehicle, PRKCD ([1]; 0.1 nM for 48 hr): 0.506 | Log2 vs Vehicle, PSMB8 ([1]; 0.1 nM for 48 hr): 0.021 | Log2 vs Vehicle, PTPN1 ([1]; 0.1 nM for 48 hr): 0.009 | Log2 vs Vehicle, PTPN6 ([1]; 0.1 nM for 48 hr): 0.402 | Log2 vs Vehicle, PTPN11 ([1]; 0.1 nM for 48 hr): 0.001 | Log2 vs Vehicle, RAE1 ([1]; 0.1 nM for 48 hr): −0.034 | Log2 vs Vehicle, RANBP2 ([1]; 0.1 nM for 48 hr): −0.044 | Log2 vs Vehicle, RNASEL ([1]; 0.1 nM for 48 hr): −0.218 | Log2 vs Vehicle, RPS27A ([1]; 0.1 nM for 48 hr): −0.054 | Log2 vs Vehicle, SAMHD1 ([1]; 0.1 nM for 48 hr): 0.128 | Log2 vs Vehicle, SP100 ([1]; 0.1 nM for 48 hr): −0.028 | Log2 vs Vehicle, STAT1 ([1]; 0.1 nM for 48 hr): 0.218 | Log2 vs Vehicle, STAT2 ([1]; 0.1 nM for 48 hr): 0.271 | Log2 vs Vehicle, TPR ([1]; 0.1 nM for 48 hr): −0.053 | Log2 vs Vehicle, TRIM5 ([1]; 0.1 nM for 48 hr): 0.107 | Log2 vs Vehicle, TRIM14 ([1]; 0.1 nM for 48 hr): 0.183 | Log2 vs Vehicle, TRIM21 ([1]; 0.1 nM for 48 hr): 0.175 | Log2 vs Vehicle, TRIM22 ([1]; 0.1 nM for 48 hr): 0.331 | Log2 vs Vehicle, TRIM25 ([1]; 0.1 nM for 48 hr): 0.161 | Log2 vs Vehicle, TRIM26 ([1]; 0.1 nM for 48 hr): 0.019 | Log2 vs Vehicle, TRIM35 ([1]; 0.1 nM for 48 hr): 0.144 | Log2 vs Vehicle, TRIM38 ([1]; 0.1 nM for 48 hr): 0.119 | Log2 vs Vehicle, TYK2 ([1]; 0.1 nM for 48 hr): −0.039 | Log2 vs Vehicle, UBA7 ([1]; 0.1 nM for 48 hr): 0.366 | Log2 vs Vehicle, UBE2E1 ([1]; 0.1 nM for 48 hr): −0.218 | Log2 vs Vehicle, UBE2L6 ([1]; 0.1 nM for 48 hr): 0.13 | Log2 vs Vehicle, UBE2N ([1]; 0.1 nM for 48 hr): 0.02 | Log2 vs Vehicle, VCAM1 ([1]; 0.1 nM for 48 hr): −0.744 | network impacted (gene ontology) ([1]; 48 hours after oral 100 μg/kg): Interferon (IFN) signaling was the most prominent network impacted | Log2 vs Vehicle, 0AS1 ([1]; for 48 hr): 1.414 | IC50 [2]: 0.036 nM | maximal inhibition ([3]; 96 hours): 70% | IC50 ([3]; Homo sapiens, NCI-H929, 96 h): 2.3 nM
